{"source": "patent US12636446B2", "about": "“Devices for evaporation and inhalation of nicotine” (Emplicure AB, priority 2016, dated 2026)", "key": {"[1]": {"settings": "calcium sulphate coins, solution 50 μl, 5 mg/ml dispensed; oven approximately 250° C., 0 to 15 minutes", "method": "Calcium sulphate alpha hemihydrate (CaS) was obtained from Bo Ehrlander AB (Sweden). Clonidine hydrochloride was obtained from PCAS (Finland). Shaped silicon rubbers were used as molds for coins (diameter: 12 mm, thickness: 2 mm). The calcium sulphate was mixed with deionised water (Liquid/Powder ratio of 0.4 (w/w)) to form a homogenous paste, which was used to fill the rubber molds. When the paste was applied, the molds were set to dry for at least 12 h under ambient conditions.\nClonidine hydrochloride solution (50 μl, 5 mg/ml) was dispensed onto the calcium sulphate coins. When the solution was applied, the coins were set to dry for at least 12 h under ambient conditions.\n(§1) The temperature was set to approximately 250° C.\n(§2) Each coin was weighed and immersed into a beaker containing 200 ml of deionised water. […] The sample was characterized by Shimadzu LC-2030 (Germany) HPLC system with a Genesis C18 analytical column 4 μm (100×2.1 mm i.d.) with a mobile phase of acetonitrile/phosphoric acid, pH 3 (11/89). The wavelength was set to 220 nm.\nThe reference samples represent the amount of clonidine hydrochloride that was loaded before heat treatment."}, "[2]": {"source_text": "Calcium sulphate alpha hemihydrate (CaS) was obtained from Bo Ehrlander AB (Sweden). Clonidine hydrochloride was obtained from PCAS (Finland). Shaped silicon rubbers were used as molds for coins (diameter: 12 mm, thickness: 2 mm). The calcium sulphate was mixed with powder of Clonidine hydrochloride (0.07 g Clonidine hydrochloride/g calcium sulphate) and deionised water (Liquid/Powder ratio of 0.4 (w/w)) to form a homogenous paste, which was used to fill the rubber molds. Once the paste had been applied, the molds were set to dry for at least 12 h under ambient conditions.\nThe oven temperature was set to approximately 250° C.\nas §2\nThe reference samples represent the amount of clonidine hydrochloride mg/g calcium sulphate that was loaded before heat treatment."}, "[3]": {"settings": "calcium sulphate rods soaked 24 hours in pure nicotine; heated 5*10 sec., maximum temperature 315° C.", "source_text": "Aluminium oxide ceramic rods and calcium sulphate rods were obtained as described in Example 3. Nicotine and nicotine solutions were supplied and applied, and nicotine levels were detected as described in Example 3.\nSamples were heated using a prototype e-cigarette device (X-Cube II, Smoke) obtained from Devex Mekatronik AB (Sweden). The device is derived from the commercially available e-cigarette X-Cube.\nThe sample in the device was heated up by a coil that is wrapped around the sample.\nThe end of the device was connected to a vial via a silicon hose. The vial contained 1 ml of deionised water. To simulate smoking a rod was put into the device and puffing was performed. Puffing involves a sequence of 5 puffs that are each 10 seconds long. After puffing, the hose was removed and flushed with the water. The water was analysed for concentration of nicotine."}, "[4]": {"settings": "calcium sulphate coins, nicotine solution 50 μl, 18 mg/ml dispensed; heated about 1 minute or about 5 minutes", "source_text": "Calcium sulphate coins were obtained as described in Example 3. For the indirect induction test a magnet was molded into the coin. Nicotine and nicotine solutions were supplied and applied, and nicotine levels were detected as described in Example 3.\nMetal plate for induction cooker was obtained from Haneström (Sweden). Induction cooker Wilfa ICP-2000 was obtained from Media Markt (Sweden). Magnets (10*1 mm, Samarium Cobalt magnets, 0.4 kg pull) were obtained from first4magnets (UK). IR-thermometer (MS6520A) was obtained from Mastech (USA).\nHeat treatment by indirect induction was carried out by placing a metal plate onto the induction cooker. The ceramic coins containing a magnet was applied onto the metal plate and heated on maximum effect (exact temperature was not measured; see FIG. 10)."}, "[5]": {"settings": "for amount of nicotine detected in the reference sample / nicotine detected in coins after heating: pure nicotine (20 mg) dispensed; for amount of nicotine detected in the reference sample: not heated"}, "[6]": {"settings": "Liquid/Powder ratio 0.4 (w/w)", "method": "Calcium sulphate alpha hemihydrate (CaS) was obtained from Bo Ehrlander AB (Sweden). Shaped silicon rubbers were used as molds for coins (diameter: 12 mm, thickness: 2 mm). The calcium sulphate was mixed with a nicotine solution with a concentration of 5 or 20 mg/ml of nicotine (Liquid/Powder ratio of 0.4 (w/w)) to form a homogenous paste, which was filled in the rubber molds. Once the paste was applied, the molds were set to dry for at least 12 h under ambient conditions.\nThe temperature was set to approximately 200° C.\nThe sample was characterized by UV-spectrophotometer at a wavelength of 219 nm. The amount nicotine in the samples were then calculated."}, "[7]": {"test": "Oven heating of Al2O3 rods soaked in sumatriptan succinate solution; detection by UV", "settings": "Al2O3 rods soaked in 20 mg/ml solution for 24 hours", "experimental": "The application of sumatriptan succinate was achieved by soaking the Al2O3 rods in a sumatriptan succinate solution with a concentration of 20 mg/ml. The volume of solution was around 100 μl but was not measured precisely; the volume was sufficient to fully immerse the rods. The samples were soaked for 24 hours in room temperature and thereafter the samples were dried for 24 hours, before heat treatment and/or analysis.\nThe temperature was set to approximately 300° C. […] The rods were heated in the oven for a period of time ranging from 0 to 15 minutes.\nAll sumatriptan release tests were carried out according to the same analytical method. The rods were immersed in a beaker containing 50 ml of deionised water. After 24 hours a sample of the water was taken out and filtered (pore size: 0.2 μm). The sample was characterized by UV-spectrophotometry at a wavelength of 282 nm. The amount sumatriptan succinate in the samples was then calculated. The reference samples represent the amount of sumatriptan succinate that was loaded before heat treatment. The difference between the amount of sumatriptan succinate detected in the heat-treated samples and the reference sample represents the amount of sumatriptan succinate that evaporated during the heat treatment."}, "[8]": {"test": "Oven heating of calcium sulphate coins pre-loaded with sumatriptan succinate; detection by UV", "assay_type": "physicochemical", "settings": "0.07 g sumatriptan succinate/g calcium sulphate, oven approximately 250° C.", "method": "as §1"}, "[9]": {"settings": "calcium sulphate rods soaked in pure nicotine, oven approximately 200° C."}}, "note": "Counter-ions that a name gives are not always drawn. Like-named read-outs stand apart in the source and are kept apart here.", "data": [{"smiles": "Clc1cccc(Cl)c1N=C1NCCN1", "note": "[clonidine hydrochloride]", "values": [{"measurement": "amount of clonidine hydrochloride present in the coins during heating", "setting": "[1]", "value": "decreased significantly"}, {"measurement": "amount of clonidine hydrochloride contained in coin", "setting": "[2]; calcium sulphate coins pre-loaded, 0.07 g clonidine hydrochloride/g calcium sulphate, coin approximately 0.3 g", "value": "approximately 17 mg"}, {"measurement": "time within which almost all of the clonidine hydrochloride was released when heated", "setting": "[2]; pre-loaded calcium sulphate coins, oven approximately 250° C.", "value": "≤ 15", "unit": "min"}]}, {"smiles": "CN1CCCC1c1cccnc1", "note": "(stereo not drawn) [nicotine]", "values": [{"measurement": "nicotine release on heat treatment in e-cigarette device", "setting": "[3]", "value": "a heat treatment in the device will result in a nicotine release"}, {"measurement": "nicotine release on induction heating, unheated plate", "setting": "[4]", "value": "Most of the nicotine was released within the first minute"}, {"measurement": "time within which almost all of the nicotine was released when heated", "setting": "[5]; aluminium oxide rods soaked in 6 mg/ml nicotine solution (diluted e-juice) 24 hours, oven approximately 200° C.", "value": "5 to 10", "unit": "min"}, {"measurement": "amount of nicotine absorbed by rod", "setting": "[5]; aluminium oxide rods soaked in 6 mg/ml nicotine solution for 24 hours", "value": "approximately 135 μg nicotine/rod"}, {"measurement": "amount of nicotine detected in the reference sample", "setting": "[5]; calcium sulphate coins", "value": "lower than 20 mg"}, {"measurement": "nicotine detected in coins after heating", "setting": "[5]; calcium sulphate coins, oven approximately 200° C.", "value": "lower release of nicotine was detected after heating"}, {"measurement": "amount of nicotine absorbed by rod", "setting": "[5]; calcium sulphate rods soaked in pure nicotine for 24 hours", "value": "approximately 20 mg nicotine/rod"}, {"measurement": "nicotine release during heating", "setting": "[5]; [9]", "value": "Most of the nicotine was released"}, {"measurement": "nicotine release, 5 min of heating compared to 1 min of heating", "setting": "[5]; [9]", "value": "a higher amount was released during 5 min of heating compared to 1 min of heating"}, {"measurement": "amount of nicotine detected in the reference sample", "setting": "[5]; geopolymer coins", "value": "about 16 mg"}, {"measurement": "nicotine detected in coins after heating", "setting": "[5]; geopolymer coins, oven approximately 200° C.", "value": "lower release of nicotine was detected after heating"}, {"measurement": "amount of nicotine contained in coin", "setting": "[6]; calcium sulphate coins mixed with 5 mg/ml nicotine solution", "value": "approximately 180 μg"}, {"measurement": "amount of nicotine contained in coin", "setting": "[6]; calcium sulphate coins mixed with 20 mg/ml nicotine solution", "value": "~390", "unit": "µg"}]}, {"smiles": "CNS(=O)(=O)Cc1ccc2[nH]cc(CCN(C)C)c2c1", "note": "[sumatriptan succinate]", "values": [{"measurement": "amount of sumatriptan succinate absorbed by rod", "setting": "[7]", "value": "approximately 1 mg sumatriptan succinate/rod"}, {"measurement": "time within which almost all of the Sumatriptan succinate was released when heated", "setting": "[8]", "value": "≤ 15", "unit": "min"}]}]}
